One test relates to p70S6K1. Briefly: Phosphorylation ratio of p70S6K1 in gastrocnemius at recovery from tail-suspension muscular atrophy. Particulars: mice after tail suspension; feed with 0.04 mass % tangeretin for 3 days. It is filed as in vivo, C57BL/6J mice. The text has this: (§1) Male C57BL/6J mice (10-week old) were preliminarily bred for one week, and divided into six groups (control group (Cont), standard feed administration after tail suspension group (Fix), Citrus depressa extract administration after tail suspension group (Fix+SE), polymethoxyflavonoid administration after tail suspension group (Fix+PMF), nobiletin administration after tail suspension group (Fix+NOB), and tangeretin administration after tail suspension group (Fix+TAN), n=8 for the Cont, Fix, Fix+SE, Fix+PMF, Fix+NOB, and Fix+TAN groups).
(§2) After the preliminary breeding, muscular atrophy was induced in the mice of the Fix and Fix+SE groups by tail suspension for two weeks. […]
On day 4 after the change of the feed, the mice were dissected, and the serum IGF-1 concentration, expression of follistatin mRNA in the gastrocnemius, expression of IGF-1 mRNA in the gastrocnemius, and phosphorylation ratio (β+γ) of p70S6K1 in the gastrocnemius were evaluated. […]
(§3) The serum IGF-1 concentration was measured in the same manner as that used in Example 1. The expression of follistatin mRNA in the gastrocnemius was measured in the same manner as that used in Example 1, except that the hind leg gastrocnemius was extracted from each […], and Assay ID Mm00514982_ml (Applied Biosystems) was used as the primer. […]

In test [1] the test system is IGF-1 mRNA in gastrocnemius. Briefly: Expression of IGF-1 mRNA in gastrocnemius at recovery from tail-suspension muscular atrophy. In kind it is in vivo, C57BL/6J mice. Particulars: mice after tail suspension; feed with 0.07 mass % nobiletin for 3 days.
Source text: as §1, §2
On day 4 after the change of the feed, the mice were dissected, and the serum IGF-1 concentration, expression of follistatin mRNA in the gastrocnemius, expression of IGF-1 mRNA in the gastrocnemius, and phosphorylation ratio (β+γ) of p70S6K1 in the gastrocnemius were evaluated.
as §3

This note sets out measurements from patent publication US9801404B2, “IGF-1 production-promoting agent” (MORINAGA MILK INDUSTRY CO., LTD., priority 2012, dated 2017).

Values joined by “and” are separate entries in the source; they are usually repeats but may differ in a detail not shown here. Equal values may be shown once.

With `COc1ccc(-c2cc(=O)c3c(OC)c(OC)c(OC)c(OC)c3o2)cc1` [TAN, tangeretin], in the test with p70S6K1, the “Phosphorylation ratio of p70S6K1, Fix+TAN group compared with the Fix group” value is listed as 112%; the “Phosphorylation ratio of p70S6K1 in gastrocnemius (β + γ) (%)” value is 47.8±11.8% and 47.8%.
Consider `COc1ccc(-c2cc(=O)c3c(OC)c(OC)c(OC)c(OC)c3o2)cc1OC` [NOB, nobiletin], for which, in test [1], the “Expression of IGF-1 mRNA in gastrocnemius (AU)” value is 1.75±0.40 AU and 1.75 AU; the “Expression of IGF-1 mRNA in gastrocnemius, Fix+NOB group compared with the Fix group” value was 107%.
